Assay results reported in patent publication US20260240863A1, “COMBINATION OF ROGINOLISIB AND HDAC INHIBITOR IN THE TREATMENT OF HAEMATOLOGICAL MALIGNANCY” (IONCTURA SA, priority 2023, published 2026).

What was measured:
Farage (DLBCL) cell line = assay: MTT antiproliferation combination assay, Chou-Talalay Combination Index, Farage; format: cell-based; details: HDAC inhibitor in combination with Compound 1, 72 hours
Protocol: (§1) Cell lines from different haematological malignancies were exposed to increasing doses of Compound 1, to increasing doses of HDAC inhibitor, and to increasing doses of the combination of Compound 1 and HDAC inhibitor. Compound 1 and Vorinostat were used at a maximum concentration of 10 μM, following an eight fold dose response design based on 1:3 compound dilutions plus an untreated control. Belinostat was used at a maximum concentration of 10 μM, following an eight fold dose response design based on 1:4 compound dilutions plus an untreated control.
(§2) Cells were incubated for 72 hours at 37° C. and 5% CO2. The antiproliferative effect of single and combination treatments were determined by adding 20 μL MTT [3-(4,5-dimethylthiazolyl-2)-2,5-diphenyltetrazoliumbromide] reagent (Sigma Aldrich, Buchs, Switzerland) to each well and the plates were incubated at 37° C. for 4 hours, followed by adding 50 μL of sodium dodecyl sulfate (SDS) (250 µM SDS, 0.21% fuming HCl) lysis buffer. The lysed cells were kept overnight, and then the absorbance was read at 570 nm using the Cytation 3 instrument (BioTek, Winoosku, VT, USA). The effect of the combinations was determined according to the Chou-Talalay Combination Index (CI) (Chou 2008, Chou 2010) and calculated with the Synergy R package (Lee 2007). […]

JVM2 (MCL) cell line = assay: MTT antiproliferation combination assay, Chou-Talalay Combination Index, JVM2; format: cell-based; details: HDAC inhibitor in combination with Compound 1, 72 hours
Protocol: as §1, §2

MEC1 (CLL) cell line = assay: MTT antiproliferation combination assay, Chou-Talalay Combination Index, MEC1; format: cell-based; details: HDAC inhibitor in combination with Compound 1, 72 hours
Protocol: as §1, §2

[1] = clinical use of Vorinostat; cited from earlier work
DNMT = details: more than that of azacytidine; cited from earlier work
TMD8 (DLBCL) cell line = assay: MTT antiproliferation combination assay, Chou-Talalay Combination Index, TMD8; format: cell-based; details: HDAC inhibitor in combination with Compound 1, 72 hours
Protocol: as §1, §2

[2] = tested on: A20 (murine B-cell lymphoma) cell line; assay: MTT antiproliferation combination assay, Chou-Talalay Combination Index, A20; format: cell-based; details: HDAC inhibitor in combination with Compound 1, 72 hours
Protocol: as §1, §2

Row | Structure (SMILES) | Cl value (median) (Farage (DLBCL) cell line) | Cl value (median) (JVM2 (MCL) cell line) | Cl value (median) (MEC1 (CLL) cell line) | pulmonary embolism (thromboembolic, most common life-threatening event) [1] | inhibitory activity of DNMT relative to azacytidine (DNMT) | Cl value (median) (TMD8 (DLBCL) cell line) | Cl value (median) [2]
1 | O=C(CCCCCCC(=O)Nc1ccccc1)NO [Vorinostat, N-Hydroxy-N′-phenyloctanediamide] | 0.69 | 0.71 | 0.83 | 4% |  |  | 
2 | Nc1ncn([C@H]2C[C@H](O)[C@@H](CO)O2)c(=O)n1 [Decitabine, 5-aza-2′-deoxycytidine] |  |  |  |  | 30 times |  | 
3 | O=C(/C=C/c1cccc(S(=O)(=O)Nc2ccccc2)c1)NO [Belinostat, (2E)-N-Hydroxy-3-[3-(phenylsulfamoyl)phenyl]prop-2-enamide] | 0.51 | 0.62 | 0.45 |  |  | 0.87 | 0.87
